Patent US6239171A, “Tocotrienols and tocotrienol-like compounds and methods for their use” (Lipogenics, Inc., priority 1998, dated 2001)

Legend:
[1] = system: hypercholesterolemic swine; test: Plasma thromboxane B2 and platelet factor 4 in hypercholesterolemic swine; assay type: in vivo; conditions: control diet + 50 ppm, 42 days
Excerpt: (§1) All assays conducted on chicken or swine serum were done following the protocols described in A. A. Qureshi et al., "Lowering Of Serum Cholesterol In Hypercholesterolemic Humans By Tocotrienols" (Palmvitee), Am. J. Clin. Nutr., 53, pp. 1021S-26S (1991). All enzymatic assays were done following the protocols described in A. A. Qureshi et al., "Effects of Cereals and Culture Filtrate of Trichoderma viride on Lipid Metabolism of Swine", Lipids, 17, pp. 924 (1982). Plasma insulin, glucagon and TNF levels were measured using radioinnumoassay kits from Ventrex Laboratories, Inc. (Portland, Me.), ICN Biomedicals, Inc. (Costa Mesa, Calif.) and Genzyme Corp. (Cambridge, Mass.), respectively.
(§2) Each group of three 5-month old swine was administered either a control diet or a control diet supplemented with 50 ppm of TRF or 50 ppm of an individual tocotrienol. The samples were prepared as described in Example 11. After a 12 hour fast, serum and plasma samples were taken a 0 hrs, 21 days and 42 days from the start of the feeding period. After taking serum and plasma samples from the pigs at the end of the 42 day period, all of the swine were fasted for a total of 40 hours, followed by a 48 hour refeeding period. One swine from each group was sacrificed at that time and the liver, intestine, lung, heart, loin muscle, adipose tissue and ham muscle were removed.
This example was conducted to measure the serum levels of apolipoprotein (a)1, apolipoprotein B, triglycerides, glucose, insulin and glucagon and the plasma levels of thromboxane B2 and platelet factor 4 in the swine described in Example 15.

[2] = system: hypercholesterolemic swine; test: Total cholesterol, triglyceride and glucose concentrations in tissues of hypercholesterolemic swine; assay type: in vivo; conditions: control diet + 50 ppm, 42 days
Description: as §2, with “The samples were prepared as described in Example 11.” left out
We next determined the effect of tocotrienols on the total cholesterol, triglyceride and glucose concentrations in various tissues of hypercholesterolemic swine.

HMG-CoA reductase = target: T1, HMG-CoA reductase (Sus scrofa, UniProt Q1W675); test: Hepatic HMG-CoA reductase activity in hypercholesterolemic swine; assay type: in vivo; conditions: control diet + 50 ppm
T1 construct: The hepatic enzymatic activity of the HMG-CoA reductase decreased approximately 30%; from tissue; host or cells: pig liver, microsomes
T1 sequence (Q1W675 1-885): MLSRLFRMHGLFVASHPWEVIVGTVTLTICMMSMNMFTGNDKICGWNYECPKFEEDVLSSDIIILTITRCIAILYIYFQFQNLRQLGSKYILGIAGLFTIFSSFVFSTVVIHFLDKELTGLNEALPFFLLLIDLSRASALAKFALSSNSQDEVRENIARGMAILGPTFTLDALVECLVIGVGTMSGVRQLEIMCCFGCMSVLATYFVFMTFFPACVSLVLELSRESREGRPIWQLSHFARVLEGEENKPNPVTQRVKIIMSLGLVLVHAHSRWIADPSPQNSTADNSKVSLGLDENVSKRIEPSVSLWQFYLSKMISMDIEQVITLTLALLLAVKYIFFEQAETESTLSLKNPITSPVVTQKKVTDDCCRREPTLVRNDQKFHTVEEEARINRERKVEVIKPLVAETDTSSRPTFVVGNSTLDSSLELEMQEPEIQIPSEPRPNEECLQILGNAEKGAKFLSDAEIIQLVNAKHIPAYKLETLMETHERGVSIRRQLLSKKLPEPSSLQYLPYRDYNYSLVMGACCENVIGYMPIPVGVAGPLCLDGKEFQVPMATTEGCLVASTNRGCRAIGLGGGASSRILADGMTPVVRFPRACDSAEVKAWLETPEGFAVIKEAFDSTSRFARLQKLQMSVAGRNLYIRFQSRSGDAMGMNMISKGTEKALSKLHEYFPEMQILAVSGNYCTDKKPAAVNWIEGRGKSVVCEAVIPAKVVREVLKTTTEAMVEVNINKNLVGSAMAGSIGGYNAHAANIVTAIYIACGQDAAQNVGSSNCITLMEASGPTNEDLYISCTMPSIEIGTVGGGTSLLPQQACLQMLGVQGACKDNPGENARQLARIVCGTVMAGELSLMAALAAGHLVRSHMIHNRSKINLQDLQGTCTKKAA
Excerpt: as §1
We next measured the effects of various tocotrienols from rice bran on HMG-CoA reductase and cholesterol 7α-hydroxylase in hypercholesterolemic swine. Since pigs are very similar to humans in their cholesterol metabolism, they provide a useful model from which to study hypercholesterolemia and related diseases. […] The serum cholesterol concentration in these swine is typically above 300-500 mg/dl, as compared to 120-160 mg/dl in normal adult swine. As a result, the pigs develop complicated atherosclerotic plaques that closely resemble advanced atherosclerotic lesions found in humans.
as §2

chickens = test: Antibody titers to sheep red blood cells in chickens; assay type: in vivo, chicken; conditions: control diet + 50 ppm, 4 weeks, sheep red blood cells i.p.
Description: The model for this study was 6-week old female white leghorn chickens. Each group of 12 chickens was fed an unsupplemented chicken diet or a control diet supplemented with 50 ppm of a tocotrienol or 100 ppm of a commercially available hypercholesterolemic agent (Geraniol or Lovastatin). […] The chickens were fed over a period of 4 weeks, then the blood was drawn. The antibody response was determined by injecting the chickens i.p. with 0.5 ml of a 5% suspension of sheep red blood cells (RBCs) in PBS (v/v) which were previously washed three times. […] Relative IgG levels were determined by using 2-mercaptoethanol preincubation for 30 min. The relative IgM levels were calculated by subtracting the IgG antibody levels from total antibody levels. All antibody levels are expressed as the log base 2 of the highest titer that was needed to hemagglutinate an equal volume of 0.5% RBC suspension.

## CC(C)=CCC/C(C)=C/CC/C(C)=C/CCC1(C)CCc2cc(O)ccc2O1 (centres unmarked) [P21, 3,4-dihydro-2-methyl-2-(4,8,12-trimethyltrideca-3' (E),7'(E),11'-trienyl)-2H-1-benzopyran-6-ol]
[1]
  Platelet Factor 4, percentage of control: 82.59%
  Thromboxane B2: 60.48 pg/100 ml
  Thromboxane B2, percentage of control: 87.66%
[2]
  TOTAL CHOLESTEROL CONCENTRATION, Adipose Tissue: 89.85 mg/100 gm
  TOTAL CHOLESTEROL CONCENTRATION, Ham Muscle: 79.51 mg/100 gm
  TOTAL CHOLESTEROL CONCENTRATION, Heart: 53.63 mg/100 gm
  TOTAL CHOLESTEROL CONCENTRATION, Intestine: 180.59 mg/100 gm
  TOTAL CHOLESTEROL CONCENTRATION, Liver: 136.70 mg/100 gm
  TOTAL CHOLESTEROL CONCENTRATION, Loin Muscle: 100.58 mg/100 gm
  TOTAL CHOLESTEROL CONCENTRATION, Lung: 75.68 mg/100 gm
  TOTAL CHOLESTEROL, Adipose Tissue, percentage of control: 82.13%
  TOTAL CHOLESTEROL, Ham Muscle, percentage of control: 79.51%
  TOTAL CHOLESTEROL, Heart, percentage of control: 83.13%
  TOTAL CHOLESTEROL, Intestine, percentage of control: 83.80%
  TOTAL CHOLESTEROL, Liver, percentage of control: 67.81%
  TOTAL CHOLESTEROL, Loin Muscle, percentage of control: 84.09%
  TOTAL CHOLESTEROL, Lung, percentage of control: 74.39%
  TOTAL GLUCOSE CONCENTRATION, Adipose Tissue: 16.67 mg/100 gm
  TOTAL GLUCOSE CONCENTRATION, Ham Muscle: 54.01 mg/100 gm
  TOTAL GLUCOSE CONCENTRATION, Heart: 44.17 mg/100 gm
  TOTAL GLUCOSE CONCENTRATION, Intestine: 62.50 mg/100 gm
  TOTAL GLUCOSE CONCENTRATION, Liver: 374.22 mg/100 gm
  TOTAL GLUCOSE CONCENTRATION, Loin Muscle: 55.45 mg/100 gm
  TOTAL GLUCOSE CONCENTRATION, Lung: 61.92 mg/100 gm
  TOTAL GLUCOSE, Adipose Tissue, percentage of control: 90.89%
  TOTAL GLUCOSE, Ham Muscle, percentage of control: 100.35%
  TOTAL GLUCOSE, Heart, percentage of control: 89.69%
  TOTAL GLUCOSE, Intestine, percentage of control: 86.84%
  TOTAL GLUCOSE, Liver, percentage of control: 92.35%
  TOTAL GLUCOSE, Loin Muscle, percentage of control: 77.84%
  TOTAL GLUCOSE, Lung, percentage of control: 92.51%
  TOTAL TRIGLYCERIDES CONCENTRATION, Adipose Tissue: 282.82 mg/100 gm
  TOTAL TRIGLYCERIDES CONCENTRATION, Ham Muscle: 182.16 mg/100 gm
  TOTAL TRIGLYCERIDES CONCENTRATION, Heart: 142.38 mg/100 gm
  TOTAL TRIGLYCERIDES CONCENTRATION, Intestine: 347.75 mg/100 gm
  TOTAL TRIGLYCERIDES CONCENTRATION, Liver: 386.25 mg/100 gm
  TOTAL TRIGLYCERIDES CONCENTRATION, Loin Muscle: 194.75 mg/100 gm
  TOTAL TRIGLYCERIDES CONCENTRATION, Lung: 165.47 mg/100 gm
  TOTAL TRIGLYCERIDES, Adipose Tissue, percentage of control activity: 64.91%
  TOTAL TRIGLYCERIDES, Ham Muscle, percentage of control activity: 98.03%
  TOTAL TRIGLYCERIDES, Heart, percentage of control activity: 98.72%
  TOTAL TRIGLYCERIDES, Intestine, percentage of control activity: 97.24%
  TOTAL TRIGLYCERIDES, Liver, percentage of control activity: 89.96%
  TOTAL TRIGLYCERIDES, Loin Muscle, percentage of control activity: 88.65%
  TOTAL TRIGLYCERIDES, Lung, percentage of control activity: 96.22%
HMG-CoA reductase; 21 days
  HMG-CoA REDUCTASE: 304.23 pg/min/mg of microsomes
  HMG-CoA REDUCTASE, percentage of 0-time value: 89.38%
HMG-CoA reductase; 42 days
  HMG-CoA REDUCTASE: 275.75 pg/min/mg of microsomes
  HMG-CoA REDUCTASE, Percentage of Control Activity: 73.59%
  HMG-CoA REDUCTASE, percentage of 0-time value: 81.02%
chickens
  IgG antibody titers in serum: 1.50 ± 1.18 Log 2
  IgM antibody titers in serum: 7.17 Log 2
  Total Ab titers in serum: 8.67 ± 1.92 Log 2
